The target of the experiment is T1, His-hMAGL (recombinant polyhistidine tagged human MAGL protein) (Homo sapiens, UniProt Q99685).
T1 construct: made in house; host or cells: E. coli BL21(DE3)
T1 sequence (Q99685 1-303): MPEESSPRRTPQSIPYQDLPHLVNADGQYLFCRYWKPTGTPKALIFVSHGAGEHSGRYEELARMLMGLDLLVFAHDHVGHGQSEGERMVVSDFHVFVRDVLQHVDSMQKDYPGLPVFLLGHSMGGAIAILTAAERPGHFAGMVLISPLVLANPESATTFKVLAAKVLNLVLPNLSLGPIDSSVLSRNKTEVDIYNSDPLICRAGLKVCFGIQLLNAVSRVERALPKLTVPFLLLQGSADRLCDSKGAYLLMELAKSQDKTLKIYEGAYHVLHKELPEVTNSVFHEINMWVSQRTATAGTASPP
In words: Measurement of MAGL inhibitory activity (arachidonic acid production from 2-arachidonylglycerol, RapidFire-mass spectrometry). The format is biochemical. The conditions noted are these: MAGL inhibitory rate, test compound 10 μM, 60 min preincubation, 2-arachidonylglycerol substrate. Here is the method:
The His-hMAGL obtained above was diluted with enzyme reaction buffer (10 mM Tris-HCl, pH 7.5, 1 mM EDTA, 0.025 (w/v) % Triton X-100, 0.01% Bovine serum albumin) to a concentration of 7.5 ng/mL. […] Thereafter, to each well was added 5 μL of 150 μM 2-arachidonylglycerol (Tocris Bioscience), and the mixture was incubated at room temperature for 10 min. Then, 10 μL of 2% formic acid (Wako Pure Chemical Industries, Ltd.) was added to stop the reaction. Furthermore, acetonitrile (50 μL) containing 3 μM arachidonic acid-d8 (Cayman Chemical Company) was added and the mixture was stirred.
The amount of arachidonic acid in the obtained enzyme reaction mixture was calculated by measuring by RapidFire-mass spectrometry and correcting by the amount of arachidonic acid-d8. High Throughput online solid phase extraction was performed using RapidFire 300™ system (Agilent Technologies, Inc.). Samples were loaded on SPE C4 cartridge (Agilent Technologies, Inc.) and desalted with 0.2 (v/v) % acetic acid (Wako Pure Chemical Industries, Ltd.) in ultrapure water/acetonitrile (70/30, v/v) at a flow rate of 1.5 mL/min, eluted at a flow rate of 0.5 mL/min with 0.2 (v/v) % acetic acid dissolved in acetonitrile/ultrapure water (90/10, v/v), and injected into the mass spectrometry part. The injection needle was washed with ultrapure water (500 millisecond) and acetonitrile (500 millisecond) to minimize carry-over. […] The RapidFire300 system was controlled by RapidFire UI software version 3.6 (Agilent Technologies, Inc.).
The mass spectrometry of the resultant product was performed using API4000™ triple quadrupole mass spectrometer (AB SCIEX) equipped with an electrospray ion sauce (TurboIon Spray™) in a negative selected reaction monitoring (SRM) mode. The conditions of SRM are shown below. The parameters of the instrument were optimized as follows: capillary temperature 600° C., ion spray voltage −4.5 kV, collision gas 8, curtain gas 15 psi, ion source gas 1 60 psi, ion source gas 2 60 psi. The mass spectrometer was controlled by Analyst™ software version 1.5.1 (AB SCIEX). The peak area integration was analyzed using RapidFire integrator software version 3.6 (Agilent Technologies, Inc.).
MAGL inhibitory rate (%) was calculated according to the following calculation formula. (1-(arachidonic acid production amount of test compound addition group−arachidonic acid production amount of enzyme-free group)÷(arachidonic acid production amount of test compound-free group−arachidonic acid production amount of enzyme-free group))×100

Consider 31 compounds from patent US10610520B2, “Heterocyclic compound” (Takeda Pharmaceutical Company Limited, priority 2016, dated 2020).

Regarding `O=C1CCC2(CN(C(=O)c3ccc(-c4ccc(C5(C(F)(F)F)CC5)cc4)cc3)C2)N1` [Example 63, 2-((4′-(1-(trifluoromethyl)cyclopropyl)biphenyl-4-yl)carbonyl)-2,5-diazaspiro[3.4]octan-6-one], the inhibition at 10 µM came out at 99%.
The same measure for `O=C1CCC2(CN(C(=O)c3ccc(-c4cccc(C5(C(F)(F)F)CC5)c4)cc3)C2)N1` [Example 64, 2-((3′-(1-(trifluoromethyl)cyclopropyl)biphenyl-4-yl)carbonyl)-2,5-diazaspiro[3.4]octan-6-one]: 99%; for `O=C1CCC2(CN(C(=O)c3ccc(-c4ccc5sc(C(F)(F)F)nc5c4)cc3)C2)N1` [Example 65, 2-(4-(2-(trifluoromethyl)-1,3-benzothiazol-5-yl)benzoyl)-2,5-diazaspiro[3.4]octan-6-one]: 85%; for `O=C1CCC2(CN(C(=O)c3ccc(-c4coc5ccccc45)cc3)C2)N1` [Example 66, 2-(4-(1-benzofuran-3-yl)benzoyl)-2,5-diazaspiro[3.4]octan-6-one]: 98%.
As to `O=C1CCC2(CN(C(=O)c3ccc(-c4csc5ccccc45)cc3)C2)N1` [Example 67, 2-(4-(1-benzothiophen-3-yl)benzoyl)-2,5-diazaspiro[3.4]octan-6-one], the inhibition at 10 µM turned out to be 100%.
The same measure for `O=C1CCC2(CN(C(=O)c3ccc(-c4cc(F)c(F)c(F)c4)cc3)C2)N1` [Example 68, 2-((3′,4′,5′-trifluorobiphenyl-4-yl)carbonyl)-2,5-diazaspiro[3.4]octan-6-one]: 93%.
The same measure for `O=C1CCC2(CN(C(=O)c3ccc(-c4ccc(F)c(F)c4F)cc3)C2)N1` [Example 69, 2-((2′,3′,4′-trifluorobiphenyl-4-yl)carbonyl)-2,5-diazaspiro[3.4]octan-6-one]: 97%; for `O=C1CCC2(CN(C(=O)c3ccc(-c4cc(F)c(F)cc4F)cc3)C2)N1` [Example 70, 2-((2′,4′,5′-trifluorobiphenyl-4-yl)carbonyl)-2,5-diazaspiro[3.4]octan-6-one]: 97%.
As for `COc1c(F)cc(-c2ccc(C(=O)N3CC4(CCC(=O)N4)C3)cc2)cc1F` [Example 71, 2-((3′,5′-difluoro-4′-methoxybiphenyl-4-yl)carbonyl)-2,5-diazaspiro[3.4]octan-6-one], the inhibition at 10 µM is 94%.
Next, `O=C1CCC2(CN(C(=O)c3ccc(-c4ccc5sncc5c4)cc3)C2)N1` [Example 72, 2-(4-(1,2-benzothiazol-5-yl)benzoyl)-2,5-diazaspiro[3.4]octan-6-one]: 97%.
Consider `O=C1CCC2(CN(C(=O)c3ccc(-c4ccc5cnsc5c4)cc3)C2)N1` [Example 73, 2-(4-(1,2-benzothiazol-6-yl)benzoyl)-2,5-diazaspiro[3.4]octan-6-one], for which the inhibition at 10 µM came out at 98%.
The same measure for `O=C1CCC2(CN(C(=O)c3ccc(-c4ccc5c(c4)OCC5)cc3)C2)N1` [Example 74, 2-(4-(2,3-dihydro-1-benzofuran-6-yl)benzoyl)-2,5-diazaspiro[3.4]octan-6-one]: 95%.
As for `O=C1CCC2(CN(C(=O)c3ccc(-c4cccc5c4CCO5)cc3)C2)N1` [Example 75, 2-(4-(2,3-dihydro-1-benzofuran-4-yl)benzoyl)-2,5-diazaspiro[3.4]octan-6-one], the inhibition at 10 µM is 90%.
For `O=C1CCC2(CN(C(=O)c3ccc(-c4c(F)cccc4F)cc3)C2)N1` [Example 76, 2-((2′,6′-difluorobiphenyl-4-yl)carbonyl)-2,5-diazaspiro[3.4]octan-6-one], the inhibition at 10 µM came out at 85%.
The same measure for `O=C1CCC2(CN(C(=O)c3ccc(-c4c(F)cc(F)cc4F)cc3)C2)N1` [Example 77, 2-((2′,4′,6′-trifluorobiphenyl-4-yl)carbonyl)-2,5-diazaspiro[3.4]octan-6-one]: 88%; for `COc1ccc(F)c(-c2ccc(C(=O)N3CC4(CCC(=O)N4)C3)cc2)c1F` [Example 78, 2-((2′,6′-difluoro-3′-methoxybiphenyl-4-yl)carbonyl)-2,5-diazaspiro[3.4]octan-6-one]: 85%.
Turning to `O=C1CCC2(CN(C(=O)c3ccc(-c4cc(F)ccc4Cl)cc3)C2)N1` [Example 79, 2-((2′-chloro-5′-fluorobiphenyl-4-yl)carbonyl)-2,5-diazaspiro[3.4]octan-6-one], the inhibition at 10 µM worked out at 92%.
As to `O=C1CCC2(CN(C(=O)c3ccc(-c4cc(Cl)ccc4Cl)cc3)C2)N1` [Example 80, 2-((2′,5′-dichlorobiphenyl-4-yl)carbonyl)-2,5-diazaspiro[3.4]octan-6-one], the inhibition at 10 µM was 98%.
For `Cc1ccc(Cl)c(-c2ccc(C(=O)N3CC4(CCC(=O)N4)C3)cc2)c1` [Example 81, 2-((2′-chloro-5′-methylbiphenyl-4-yl)carbonyl)-2,5-diazaspiro[3.4]octan-6-one], the inhibition at 10 µM turned out to be 94%.
Next, `COc1ccc(Cl)c(-c2ccc(C(=O)N3CC4(CCC(=O)N4)C3)cc2)c1` [Example 82, 2-((2′-chloro-5′-methoxybiphenyl-4-yl)carbonyl)-2,5-diazaspiro[3.4]octan-6-one]: 93%; `Cc1ccc(-c2ccc(C(=O)N3CC4(CCC(=O)N4)C3)cc2)c(Cl)c1` [Example 83, 2-((2′-chloro-4′-methylbiphenyl-4-yl)carbonyl)-2,5-diazaspiro[3.4]octan-6-one]: 96%; `O=C1CCC2(CN(C(=O)c3ccc(-c4ccc(Cl)cc4Cl)cc3)C2)N1` [Example 84, 2-((2′,4′-dichlorobiphenyl-4-yl)carbonyl)-2,5-diazaspiro[3.4]octan-6-one]: 101%.
Next, `COc1ccc(-c2ccc(C(=O)N3CC4(CCC(=O)N4)C3)cc2)c(Cl)c1` [Example 85, 2-((2′-chloro-4′-methoxybiphenyl-4-yl)carbonyl)-2,5-diazaspiro[3.4]octan-6-one]: 94%; `O=C1CCC2(CN(C(=O)c3ccc(-c4cccc(Cl)c4)cc3)C2)N1` [Example 86, 2-((3′-chlorobiphenyl-4-yl)carbonyl)-2,5-diazaspiro[3.4]octan-6-one]: 97%.
In the case of `O=C1CCC2(CN(C(=O)c3ccc(-c4ccc(Cl)cc4)cc3)C2)N1` [Example 87, 2-((4′-chlorobiphenyl-4-yl)carbonyl)-2,5-diazaspiro[3.4]octan-6-one], the inhibition at 10 µM is 98%.
The same measure for `Cc1ccc(-c2ccc(C(=O)N3CC4(CCC(=O)N4)C3)cc2)c(C)c1` [Example 88, 2-((2′,4′-dimethylbiphenyl-4-yl)carbonyl)-2,5-diazaspiro[3.4]octan-6-one]: 98%; for `Cc1cccc(-c2ccc(C(=O)N3CC4(CCC(=O)N4)C3)cc2)c1C` [Example 89, 2-((2′,3′-dimethylbiphenyl-4-yl)carbonyl)-2,5-diazaspiro[3.4]octan-6-one]: 96%; for `Cc1ccc(C)c(-c2ccc(C(=O)N3CC4(CCC(=O)N4)C3)cc2)c1` [Example 90, 2-((2′,5′-dimethylbiphenyl-4-yl)carbonyl)-2,5-diazaspiro[3.4]octan-6-one]: 92%.
For the compound `Cc1c(F)ccc(F)c1-c1ccc(C(=O)N2CC3(CCC(=O)N3)C2)cc1` [Example 91, 2-((3′,6′-difluoro-2′-methylbiphenyl-4-yl)carbonyl)-2,5-diazaspiro[3.4]octan-6-one], the inhibition at 10 µM turned out to be 90%.
In the case of `Cc1cc(C(F)(F)F)ccc1-c1ccc(C(=O)N2CC3(CCC(=O)N3)C2)cc1` [Example 92, 2-((2′-methyl-4′-(trifluoromethyl)biphenyl-4-yl)carbonyl)-2,5-diazaspiro[3.4]octan-6-one], the inhibition at 10 µM came to 96%.
The same measure for `Cc1cc(C)c(-c2ccc(C(=O)N3CC4(CCC(=O)N4)C3)cc2)c(C)c1` [Example 93, 2-((2′,4′,6′-trimethylbiphenyl-4-yl)carbonyl)-2,5-diazaspiro[3.4]octan-6-one]: 82%.

In general, inhibition refers to the drop in the measured response relative to a control, in per cent.
